The test system of one assay is human islets. As to the kind of experiment: Glucose stimulated insulin secretion (GSIS) of human islets treated with PIC. The format is cell-based. As to the method: Human islets from nondiabetic donors were received from the Integrated Islet Distribution Program or Prodo Laboratories (Aliso Viejo, CA) (Table 1). Characteristics of islets and donors are summarized in the below table. Islets were incubated in CMRL-1066 medium supplemented with 10% fetal bovine serum and 1% Pen-Strept overnight at 37° C. in 5% CO2 for recovery from shipment. On the next day, islets were transferred to CMRL-1066 supplemented with 5% fetal bovine serum and 1% Pen-Strept. A portion of the islets were randomly selected and incubated with a mixture of human PICs, […] tumor necrosis factor α, […] interferon-γ, and […] IL-1β (all from BD Biosciences, San Jose, CA) in the presence or absence of 1 μmol/L compound LOX-12-001. Compound LOX-12-001 was added 30 minutes before the addition of pro-inflammatory cytokines (PIC).
Use of Krebs-Ringer buffer (KRB) for glucose-stimulated insulin secretion (GSIS) was previously published. For batch assays, islets treated with PIC in the presence or absence of compound LOX-12-001 (1 μM) for 24 hours were transferred to KRB without glucose and were incubated for 1 hour at 37° C. in 5% CO2 in the absence of PIC and compound LOX-12-001. Thereafter, 50 islet equivalents (IEQs) per well were transferred to six-well plates filled with 1 mL of KRB containing 3 mmol/L or 18 mmol/L of glucose and were incubated for 1 hour at 37° C. in 5% CO2. Each condition was performed in triplicate. After incubation, supernatant was collected for determination of insulin secretion by human insulin enzyme-linked immunosorbent assay (Mercodia, Winston-Salem, NC).
Data are presented as mean±standard error of the mean and were analyzed using Two-way Annova analysis of variance Sidak's multiple comparison test (Prism software, Irvine, CA) as indicated in each figure. P<0.05 was considered significant.

The target of the next assay is T1, 12-LOX mutant F414L (Homo sapiens, UniProt P18054, F414L).
T1 construct: 6xHis (N); made in house; pFastBac1 shuttle vector
T1 sequence (P18054 1-663 F414L): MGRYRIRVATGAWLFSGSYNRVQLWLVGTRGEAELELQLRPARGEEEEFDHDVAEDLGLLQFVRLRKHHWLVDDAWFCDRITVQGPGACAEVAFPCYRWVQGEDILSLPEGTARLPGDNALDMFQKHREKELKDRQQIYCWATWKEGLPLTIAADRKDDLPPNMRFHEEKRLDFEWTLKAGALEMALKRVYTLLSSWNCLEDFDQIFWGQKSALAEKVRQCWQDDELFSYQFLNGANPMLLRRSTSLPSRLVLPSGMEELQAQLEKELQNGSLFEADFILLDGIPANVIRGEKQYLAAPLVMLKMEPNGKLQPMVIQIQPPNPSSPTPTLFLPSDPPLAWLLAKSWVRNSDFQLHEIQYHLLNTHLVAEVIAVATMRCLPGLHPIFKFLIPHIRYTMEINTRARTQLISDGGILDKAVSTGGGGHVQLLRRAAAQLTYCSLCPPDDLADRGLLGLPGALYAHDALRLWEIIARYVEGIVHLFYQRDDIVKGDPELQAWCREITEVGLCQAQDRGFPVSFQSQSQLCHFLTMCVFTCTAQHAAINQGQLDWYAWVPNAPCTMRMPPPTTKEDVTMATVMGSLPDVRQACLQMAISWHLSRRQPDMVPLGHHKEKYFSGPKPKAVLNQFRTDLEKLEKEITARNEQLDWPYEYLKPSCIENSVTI
In words: UV-Vis-based IC50 assay, F414L mutant. The format is biochemical. The text has this: Based on the ML355 binding mode predicted by the modeling, all residues within 5 Å of any atom of ML355 were selected for experimental mutagenesis. The selected residues were replaced with amino acids with either bulkier or smaller side chains in order to determine what specific interactions play a role in inhibitor binding. […] The numbering refers to the UniProt accession number P18054 sequence, with the N-terminal methionine assigned as amino acid number one. The primers for all mutants were designed using the online QuikChange Primer Design tool (http://www.genomics.agilent.com/primerDesignProgram.jsp) from Agilent Technologies (CA, USA). The mutations were introduced by using the QuikChange® II XL site-directed mutagenesis kit from Agilent, following the instructions in the protocol provided. […]
The wild type 12-LOX (wt-12-LOX) enzyme and its mutants were expressed as fusion proteins, with an N-terminal 6×His tag, and were affinity purified by nickel-iminodiacetic acid agarose using FPLC (Biorad).
The percent inhibition was determined by comparing the enzyme rates of the control (DMSO solvent) and the inhibitor sample by following the formation of the conjugated diene product at 234 nm (ε=25,000 M^−1cm^−1). […] The substrate concentration was quantitatively determined by allowing the enzymatic reaction to go to completion in the presence of soybean LOX-1. […]

SMILES strings stand for the structures.

The IC50 is the point on the concentration scale where inhibition reaches its midpoint. High values mean lower potency, low ones higher potency.

Turning to `COc1cccc(CNc2ccc(S(=O)(=O)Nc3nc4c(ccc5ccccc54)s3)cc2)c1O` [Compound LOX-12-001, 4-((2-hydroxy-3-methoxybenzyl)amino)-N-(naphtho[1,2-d]thiazol-2-yl)benzenesulfonamide], the insulin secretion was 140+/−3 mU/L with human islets (3 mmol/L glucose, PIC plus 1 μM compound for 24 hrs); 25+/−5 mU/L in the assay on human islets (3 mmol/L glucose, compound only (1 μM), no PIC); 352+/−10 mU/L with human islets (18 mmol/L glucose, PIC plus 1 μM compound for 24 hrs); 128+/−13 mU/L in the assay on human islets (18 mmol/L glucose, compound only (1 μM), no PIC). The compound also came in with a concentration for half-maximal inhibition (IC50) at 12-LOX mutant F414L (F414L) of 0.18 ± 0.01 µM. Moreover, the “fold increase in IC50 compared to wt12-LOX” value at 12-LOX mutant F414L (F414L vs wt12-LOX) is given as 3.6 fold.

The values above are taken from patent US20240279190A1, “COMPOUNDS FOR MODULATING PLATELET-TYPE 12-(S)-LIPOXYGENASE AND METHODS OF USE FOR SAME” (The Regents of The University of California, priority 2021, published 2024).
